Earlier results, collected in PMC12308805, “Ultrahigh-Throughput Virtual Screening Strategies against PPI Targets: A Case Study of STAT Inhibitors” (Journal of Chemical Information and Modeling, 2025).
Square brackets hold non-standard residues; d marks the D form. Peptide text beside a SMILES is read from it. * marks the point of attachment. pY = N[C@@H](Cc1ccc(OP(=O)(O)O)cc1)C(=O)O; Bz = O=C(c1ccccc1)*

Test system: STAT3
Details: cited from earlier work
In the case of `CC(C)C[C@H](NC(=O)/C=C/c1ccc(OP(=O)(O)O)cc1)C(=O)N1CCC[C@H]1C(=O)N[C@H](C)COC(N)=O` [CHEMBL584376], the “Type (known STAT3 active)” value is listed as “Active”.

Same assay, conditions: sheet 6QHD_actives_decoys, retrospective screening set for STAT3 SH2 domain (PDB 6QHD); decoys are presumed inactives, not tested; ref DUD-E; cited from earlier work
In the case of `CC1=C/C(=C(\c2cc(C)c(O)c(CN(C)CC(=O)O)c2)c2ccccc2S(=O)(=O)O)C=C(CN(C)CC(=O)O)C1=O` [Decoy767], the Type is listed as “Inactive (Decoy)”. For `CC(=C\C(=O)O)/C=C(\C)C[C@@H](C)CCCC[C@@H](O)[C@@H](CO)C(=O)OC[C@H]1O[C@@H](O)[C@@H](O)[C@@H](O)[C@H]1O` [Decoy875], the Type is listed as “Inactive (Decoy)”. In the case of `COc1cc(NC(=O)CCSc2nnc(N/N=C/c3c(O)ccc4ccccc34)n2N)cc(OC)c1` [Decoy871], the Type is given as “Inactive (Decoy)”. For `COc1ccc(CCNc2ccc3nnc(CCNS(=O)(=O)c4ccccc4OC)n3n2)cc1OC` [Decoy899], the Type is listed as “Inactive (Decoy)”. For `COc1cc(C(=O)NNC(=S)NC(=O)COc2ccc(Br)cc2C)cc(OC)c1OC` [Decoy856], the Type is listed as “Inactive (Decoy)”. For `CCCCCCCCCCCCCCCCN(C)S(=O)(=O)c1ccc2sc(NNS(=O)(=O)c3ccc(S(N)(=O)=O)cc3)[n+](C)c2c1` [Decoy748], the Type is given as “Inactive (Decoy)”. For `CCOC(=O)c1ccc(NC(=O)C(=O)NCc2ccc(/C=C3\C(=O)N(c4ccc(Cl)c(Cl)c4)C(C)=C3C(=O)OC)o2)cc1` [Decoy846], the Type is listed as “Inactive (Decoy)”. For `COc1ccc(OC)c(S(=O)(=O)Nc2ccc(S(=O)(=O)Nc3nccc(C)n3)cc2)c1` [Decoy835], the Type is given as “Inactive (Decoy)”. In the case of `Cc1cccc(N(C(=O)c2snc(C(N)=O)c2N)[C@H](C(=O)NCCC(C)C)c2ccc(N(C)C)cc2)c1` [Decoy870], the Type is given as “Inactive (Decoy)”. For `O=C(O)C[C@H](NS(=O)(=O)c1cc(S(=O)(=O)N[C@@H](CC(=O)O)c2ccccc2)c2cccc3c2c1NC3=O)c1ccccc1` [Decoy893], the Type is listed as “Inactive (Decoy)”. For `COc1ccc([C@H](O[C@@H]2O[C@H](CO)[C@@H](O)[C@H](O)[C@H]2O)[C@@H](CO)Oc2ccc(/C=C/CO)cc2OC)cc1O` [Decoy765], the Type is listed as “Inactive (Decoy)”. For `CCCN[C@H](c1cc(F)ccc1Cl)c1cc(C)ccc1Br` [Decoy850], the Type is listed as “Inactive (Decoy)”. For `COC(=O)c1sc(NC(=O)CCCS(=O)(=O)c2nc(-c3ccc(OC)c(OC)c3)cc(C(F)(F)F)n2)c(C(N)=O)c1C` [Decoy915], the Type is given as “Inactive (Decoy)”. In the case of `CC(=O)N[C@H]1[C@@H](OC(=O)CCn2c(=O)oc3ccccc32)O[C@@H](COC(C)=O)[C@@H](OC(C)=O)[C@H]1OC(C)=O` [Decoy931], the Type is listed as “Inactive (Decoy)”. For `COCCNC(=O)[C@@H](c1ccc(F)cc1)N(C(=O)c1snc(C(N)=O)c1N)c1ccc2c(c1)OCO2` [Decoy808], the Type is given as “Inactive (Decoy)”. In the case of `COc1ccccc1OCCNC[C@H](O)COc1cccc2c1c1ccccc1n2C[C@H](O)COc1cccc2[nH]c3ccccc3c12` [Decoy900], the Type is listed as “Inactive (Decoy)”.

Same assay, conditions: sheet 6QHD_actives_decoys; known STAT3 actives of the retrospective screening set; ref ChEMBL / literature; cited from earlier work
In the case of `CNC(=O)[C@H](CCC(N)=O)NC(=O)[C@@H]1Cc2cccc3c2N1C(=O)[C@@H](NC(=O)/C=C/c1ccc(OP(=O)(O)O)cc1)CC3` [CHEMBL454365], the “Type (known STAT3 active)” value is given as “Active”. In the case of `CC(=O)N[C@@H](Cc1ccc(OCC(=O)O)cc1)C(=O)N[C@@H](CC(C)C)C(=O)N1CCC[C@H]1C(=O)N[C@@H](CCC(N)=O)C(=O)N[C@H](C(=O)N[C@H](C(=O)O)C(C)C)[C@@H](C)O` [CHEMBL414897], the “Type (known STAT3 active)” value is listed as “Active”. For `NC(=O)C1CCN(C(=O)[C@@H]2Cc3cccc4c3N2C(=O)[C@@H](NC(=O)/C=C/c2ccc(OP(=O)(O)O)cc2)CC4)C1` (stereo partly drawn) [CHEMBL515762], the “Type (known STAT3 active)” value is listed as “Active”. In the case of `CC(C)C[C@H](NC(=O)/C=C/c1ccc(OP(=O)(O)O)cc1)C(=O)N1C[C@H]2C[C@H]2[C@H]1C(=O)N[C@@H](CCC(N)=O)[C@@H](C)OCc1ccccc1` [CHEMBL573443], the “Type (known STAT3 active)” value is given as “Active”. For `CC(C)C[C@H](NC(=O)/C=C/c1ccc(OP(=O)(O)O)cc1)C(=O)N1CCC[C@H]1C(=O)NCCNC(N)=O` [CHEMBL574636], the “Type (known STAT3 active)” value is listed as “Active”. In the case of `NC(=O)CC[C@H](NC(=O)[C@@H]1CC[C@@H]2CC[C@H](NC(=O)/C=C/c3ccc(OP(=O)(O)O)cc3)C(=O)N21)C(=O)NCc1ccccc1` [CHEMBL445970], the “Type (known STAT3 active)” value is listed as “Active”. In the case of `CC(C)NC(=O)[C@H](CCC(N)=O)NC(=O)[C@@H]1Cc2cccc3c2N1C(=O)[C@@H](NC(=O)/C=C/c1ccc(OP(=O)(O)O)cc1)CC3` [CHEMBL447460], the “Type (known STAT3 active)” value is given as “Active”. In the case of `COC(=O)[C@H](CCC(N)=O)NC(=O)[C@@H]1Cc2cccc3c2N1C(=O)[C@@H](NC(=O)/C=C/c1ccc(OP(=O)(O)O)cc1)CC3` [CHEMBL503365], the “Type (known STAT3 active)” value is given as “Active”. In the case of `CC(C)C[C@H](NC(=O)[C@H](Cc1ccc(OP(=O)(O)O)cc1)NC(=O)c1ccccc1)C(=O)N1CCC[C@H]1C(=O)N[C@@H](CCC(N)=O)C(=O)N[C@H](C(N)=O)[C@@H](C)O` [CHEMBL425571] (Bz-[pY]LPQT-NH2), the “Type (known STAT3 active)” value is given as “Active”. For `CC(C)C[C@H](NC(=O)/C=C/c1ccc(OP(=O)(O)O)cc1)C(=O)N1CCC[C@H]1C(=O)NCCOC(N)=O` [CHEMBL576590], the “Type (known STAT3 active)” value is given as “Active”.

Same assay, conditions: sheet 6QHD_actives_decoys; retrospective screening set for STAT3 SH2 domain (PDB 6QHD); […]; ref DUD-E; cited from earlier work
In the case of `CCOc1ccc(NS(=O)(=O)c2ccc3c(c2)CC(=O)N3)cc1S(=O)(=O)N1CCCC1` [Decoy537], the Type is given as “Inactive (Decoy)”. For `COc1cc([C@H]2C(C#N)=C(N)Oc3[nH]nc(-c4cc(OC)c(OC)c(OC)c4)c32)ccc1OC(=O)N1CCOCC1` [Decoy695], the Type is given as “Inactive (Decoy)”. In the case of `COc1cc(/C=N\NC(=O)N/N=C/c2cc(OC)c(O)c([N+](=O)[O-])c2)cc([N+](=O)[O-])c1O` [Decoy599], the Type is given as “Inactive (Decoy)”.

Same assay, conditions: sheet 6QHD_actives_decoys; retrospective screening set for STAT3 SH2 domain (PDB 6QHD); decoys generated with DUD-E and presumed inactive, not tested; ref DUD-E; cited from earlier work
For `COc1cc([C@@H]2C(C(=O)c3ccc4c(c3)OCCO4)=C(O)C(=O)N2CCCn2ccnc2)cc(Br)c1O` [Decoy647], the Type is listed as “Inactive (Decoy)”. In the case of `Cc1ccc(S(=O)(=O)NNc2ncnc(NNC(=O)c3ccccc3)c2[N+](=O)[O-])cc1` [Decoy575], the Type is listed as “Inactive (Decoy)”. In the case of `CC(=O)N[C@H]1[C@H]([C@H](O)[C@H](O)CO)O[C@@](O[C@H]2[C@@H](O)[C@@H](CO)O[C@@H](O[C@@H]([C@H](O)[C@@H](O)C=O)[C@H](O)CO)[C@@H]2O)(C(=O)O)C[C@@H]1O` [Decoy664], the Type is given as “Inactive (Decoy)”. In the case of `O=C(O)c1cccc(NC(=O)[C@@H]2C[C@H](SS[C@@H]3CN[C@H](C(=O)Nc4cccc(C(=O)O)c4)C3)CN2)c1` [Decoy613], the Type is given as “Inactive (Decoy)”. In the case of `COC(=O)CCSCCO[C@@H]1O[C@H](CO)[C@@H](O[C@@H]2O[C@H](CO)[C@@H](O)[C@@H](O)[C@H]2O)[C@H](O)[C@@H]1NC(C)=O` [Decoy353], the Type is listed as “Inactive (Decoy)”. In the case of `Cc1ccc(NC(=O)CN(C)C(=O)[C@H](C)OC(=O)CNC(=O)c2ccc(Cl)c([N+](=O)[O-])c2)cc1` [Decoy457], the Type is listed as “Inactive (Decoy)”. In the case of `CCN(CC)c1ccc(C(=O)OCC(=O)Nc2cccc(S(=O)(=O)/N=C3\CCCCCN3)c2)cc1` [Decoy504], the Type is listed as “Inactive (Decoy)”. In the case of `Nc1ncnc2c1ncn2[C@@H]1O[C@@H](CO[P@@](=O)(O)O[P@@](=O)(O)OC[C@H](O)[C@H](O)[C@H](O)C=O)[C@@H](O)[C@H]1O` [Decoy402], the Type is given as “Inactive (Decoy)”. In the case of `COc1ccc([C@H](C(=O)NCS(=O)(=O)c2ccc(C)cc2)N(Cc2ccco2)C(=O)CCl)cc1` [Decoy337], the Type is listed as “Inactive (Decoy)”. For `COc1ccc(C(=O)N/C(=C\c2cn(S(=O)(=O)N(C)C)c3ccccc23)C(=O)NCCN2CCOCC2)cc1OC` [Decoy375], the Type is listed as “Inactive (Decoy)”. For `COC(=O)[C@@H]1O[C@H](OCC(=O)[C@@]2(O)CC[C@@H]3[C@H]4CCC5=CC(=O)CC[C@@]5(C)[C@@H]4[C@@H](O)C[C@@]32C)[C@@H](OC(C)=O)[C@H](OC(C)=O)[C@H]1OC(C)=O` [Decoy633], the Type is given as “Inactive (Decoy)”. For `COc1cc([N+](=O)[O-])ccc1NC(=O)C[C@H]1N=C(N/C(N)=N/c2ccccc2C)N=C1O` [Decoy615], the Type is given as “Inactive (Decoy)”. For `CC[C@H]1OC(=O)[C@H](C)[C@@H](O[C@@H]2C[C@@](C)(OC)[C@H](O)[C@H](C)O2)[C@H](C)[C@H](O[C@H]2O[C@@H](C)C[C@@H](N(C)C)[C@H]2O)[C@](C)(O)C[C@@H](C)/C(=N\OCOCCOC)[C@H](C)[C@@H](O)[C@]1(C)O` [Decoy581], the Type is given as “Inactive (Decoy)”. In the case of `CC[C@@H](c1nnnn1CCOC)N(CCc1ccc(OC)c(OC)c1)Cc1cc2c(C)cc(C)cc2[nH]c1=O` [Decoy616], the Type is listed as “Inactive (Decoy)”. For `COC(=O)c1cc2c(cc1C(=O)OC)OCCOCCOCCN(Cc1cn(CCOCCOCCO)nn1)CCOCCOCCO2` [Decoy630], the Type is given as “Inactive (Decoy)”. For `COC(=O)c1sc(S(=O)(=O)NCC(=O)OCC(=O)Nc2cccc(C#N)c2)c(C(=O)OC)c1C` [Decoy364], the Type is given as “Inactive (Decoy)”. In the case of `COc1ccc(OC)c(-n2c(CNC(=O)c3ccc(S(=O)(=O)N(C)C)cc3)nnc2SCC(=O)Nc2ccc(F)cc2)c1` [Decoy528], the Type is given as “Inactive (Decoy)”. For `COC(=O)c1ccc2c(=O)n(CCc3ccc(S(N)(=O)=O)cc3)c(SCC(=O)Nc3ccc(C)cc3)nc2c1` [Decoy496], the Type is given as “Inactive (Decoy)”. In the case of `COC(=O)/C(=N/NC(C)(C)C)[C@@H](C(=O)C(=O)Nc1cc(C)ccc1C)c1nc2ccccc2[nH]c1=O` [Decoy341], the Type is listed as “Inactive (Decoy)”. In the case of `C=CCn1c(SCC(=O)Nc2sc(C(N)=O)c(C)c2C(=O)OC)nnc1-c1ccc(N(C)C)cc1` [Decoy380], the Type is listed as “Inactive (Decoy)”. In the case of `CNc1ncnc2c1ncn2[C@H]1C[C@H](O)[C@@H](COC(c2ccccc2)(c2ccc(OC)cc2)c2ccc(OC)cc2)O1` [Decoy334], the Type is given as “Inactive (Decoy)”. For `CC(=O)N[C@@H]1[C@@H](O)[C@H](O[C@@H]2O[C@H](CO)[C@H](O)[C@H](O[C@@]3(C(=O)O)C[C@H](O)[C@H](NC(C)=O)[C@H]([C@H](O)[C@H](O)CO)O3)[C@H]2O)[C@@H](CO)O[C@H]1O` [Decoy637], the Type is listed as “Inactive (Decoy)”. For `C[C@H](OC(=O)[C@@](O)(Cc1ccc(O)cc1)[C@H](C)O)[C@@](O)(Cc1ccc(O)cc1)C(=O)OCc1ccc(O[C@H]2O[C@@H](CO)[C@@H](O)[C@@H](O)[C@H]2O)cc1` [Decoy621], the Type is given as “Inactive (Decoy)”. For `OC[C@@H](O)CN(C[C@H](O)CO)c1ccc(Cc2ccc(N(C[C@H](O)CO)C[C@@H](O)CO)cc2)cc1` [Decoy620], the Type is given as “Inactive (Decoy)”.
